SMILES strings stand for the structures.

Data set [1] relates to BCPAP xenograft. The data set is described as follows: In vivo antitumor activity. Conditions: NSG mice, i.v. every four days five times, 0.5 mg/kg Dox or Da, day 20, mean ± SD, n = 4. As to the method: (§1) All animal experiments were performed according to the protocol approved by the Animal Care and Use Committee of the Tianjin Medical University Cancer Institute and Hospital. NSG mice (5 weeks, female) were purchased from Gempharmatech Co., Ltd. (Jiangsu, China). […] The body weight and tumor size of each mouse were monitored and recorded every two days during the treatment process of 20 days. The tumor volume (V) was measured with a digital caliper and calculated using the equation: V= (L×W^2)/2, where W and L refer to the […] diameters of the tumors, respectively. At the end of the experiment, the mice were euthanized, and the tumor tissues and main organs (heart, liver, spleen, lung, and kidney) were photographed, weighed, and collected. Furthermore, the collected ex vivo tumors and main organs were fixed with 4% paraformaldehyde for the subsequent hematoxylin and eosin (H&E), terminal deoxynucleotidyl transferase-mediated deoxyuridine triphosphate nick end labeling (TUNEL), and immunohistochemical staining, including Ki67, BRAF V600E, p-ERK, Bcl-2, Bax and Cleaved-Caspase 3. Blood was obtained from the mouse eye socket for blood biochemistry and routine blood analysis, which was compared with the blank group without tumor inoculation.

For data set [2], the system named is BCPAP cells. The data set is described as follows: In vitro cytotoxicity, MTT assay. The data set is classed as cell-based. Conditions: Homo sapiens, 48 h, Da/Dox mass ratio 1:1, value given for Dox, n = 3. As to the method: The cytotoxicity of peptides, free agents, and the co-assemblies towards BCPAP and L02 cells was evaluated using the standard MTT assay. Briefly, the cells were seeded into 96-well plates at a density of 8×10^3 cells per well in 100μL of DMEM medium containing 10% FBS and 1% penicillin-streptomycin. After overnight pre-incubation, the cells were treated with the compound, free agents, and co-assemblies at different concentrations for 48 h. Untreated tumor cells were used as controls. Subsequently, the medium was replaced with an MTT solution (100 μL, 0.5 mg/mL) and further cultured for 4 h. Finally, the supernatant was removed and 100 μL of DMSO was added to each well to dissolve the purple crystals. Cell viability was measured using a microplate reader by recording the absorbance of the formazan product at 570 nm.
(Tetrazolium dyes change colour on reduction, which living cells bring about.)

In data set [3] the test system is BCPAP cells. The data set is described as follows: Cell apoptosis analysis, Annexin V-APC/7-AAD flow cytometry. The data set is classed as cell-based, human. Conditions: 36 h, 0.5 µM (Dox or Da). Here is the method:
Apoptosis in BCPAP cells was measured using an Annexin V-APC/7-AAD Apoptosis Detection Kit. Briefly, BCPAP cells in DMEM were seeded into 6-well plates at a density of 3×10^5 cells per well and incubated overnight. After treatment with PBS and Dox concentration of 0.5 µM for 36 h, the cells were trypsinized, collected, washed twice with cold PBS, and centrifuged at 1500 rpm for 5 min. The precipitated cells were resuspended in 500 μL Annexin V-APC binding buffer and incubated with 5 μL Annexin V-APC and 5 μL 7-AAD at room temperature for 15 min in the dark. The samples were then analyzed using a flow cytometer.
Background: Flow cytometry measures light scatter and fluorescence of single cells or particles in a stream.

Data set [4] can be described thus: Body weight and serum ALT in the antitumor study. Particulars: tumor-bearing NSG mice, n = 4. It counts as in vivo. As to the method: as §1

In general, IC50 refers to the point on the concentration scale where inhibition reaches its midpoint. In the case of `CC(C)(C)c1nc(-c2cccc(NS(=O)(=O)c3c(F)cccc3F)c2F)c(-c2ccnc(N)n2)s1` [Da, dabrafenib], in data set [1], the “tumor weight at the end of the experiment” value stood at 459.6 ± 43.2 mg. The half-maximal inhibitory concentration (IC50) in data set [2] stood at 2080 nM. This compound also came in with a total apoptosis rate in data set [3] of 5.17%.
Regarding `COc1cccc2c1C(=O)c1c(O)c3c(c(O)c1C2=O)C[C@@](O)(C(=O)CO)C[C@@H]3O[C@H]1C[C@H](N)[C@H](O)[C@H](C)O1` [Dox, doxorubicin], the body weight entry in data set [4] (0.5 mg/kg i.v. every four days five times, 20 days) is “slight decrease”. Besides, the “serum glutamic pyruvic transaminase (ALT) level” value in data set [4] (end of the antitumor experiment) is recorded as “elevated ALT levels”. Besides, the “tumor weight at the end of the experiment” value in data set [1] came to 284.7 ± 36.4 mg. Besides, the IC50 in data set [2] turned out to be 1720 nM. In addition, the total apoptosis rate in data set [3] came to 7.08%.

For the origin of these results see article PMC10157742, “Supramolecular nanofibers co-loaded with dabrafenib and doxorubicin for targeted and synergistic therapy of differentiated thyroid carcinoma” (Theranostics, 2023).
